Laboratory results from US8524917B2, “6-substituted indole-3-carboxylic acid amide compounds having sphingosine-1-phosphate (S1P) receptor antagonist biological activity” (Allergan, Inc., priority 2007, dated 2013).
Where two headings read alike, the source gives them in different places.

Target: human S1P3 receptor (Homo sapiens (Human), UniProt Q99500)
Experiment: Activation or block of activation of human S1P3 receptor, Ca+2 FLIPR assay
Type: cell-based
Description: Compounds were assessed for their ability to activate or block activation of the human S1P3 receptor in T24 cells stably expressing the human S1P3 receptor. Ten thousand cells/well were plated into 384-well poly-D-lysine coated plates one day prior to use. The growth media for the S1P3 receptor expressing cell line was McCoy's 5A medium supplemented with 10% charcoal-treated fetal bovine serum (FBS), 1% antibiotic-antimycotic and 400 μg/ml geneticin. On the day of the experiment, the cells were washed twice with Hank's Balanced Salt Solution supplemented with 20 mM HEPES (HBSS/Hepes buffer). […] Extracellular dye was removed by washing the cell plates four times prior to placing the plates in the FLIPR (Fluorometric Imaging Plate Reader, Molecular Devices). Ligands were diluted in HBSS/Hepes buffer and prepared in 384-well microplates. The positive control, Sphingosine-1-Phosphate (S1P), was diluted in HBSS/Hepes buffer with 4 mg/ml fatty acid free bovine serum albumin. The FLIPR transferred 12.5 μl from the ligand microplate to the cell plate and took fluorescent measurements for 75 seconds, taking readings every second, and then for 2.5 minutes, taking readings every 10 seconds. […] IC50 values were determined through a […] analysis using the Levenburg Marquardt algorithm.

[1] = T24 cells stably expressing the human S1P3 receptor, FLIPR Ca+2 response, 0.61 nM to 10,000 nM, read-out: S1P3 IC50
[2] = T24 cells stably expressing the human S1P3 receptor, value in brackets
[3] = T24 cells stably expressing the human S1P3 receptor, second concentration in the cell, read-out: S1P3 Kb

human S1P3 receptor, sequence (Q99500 whole entry): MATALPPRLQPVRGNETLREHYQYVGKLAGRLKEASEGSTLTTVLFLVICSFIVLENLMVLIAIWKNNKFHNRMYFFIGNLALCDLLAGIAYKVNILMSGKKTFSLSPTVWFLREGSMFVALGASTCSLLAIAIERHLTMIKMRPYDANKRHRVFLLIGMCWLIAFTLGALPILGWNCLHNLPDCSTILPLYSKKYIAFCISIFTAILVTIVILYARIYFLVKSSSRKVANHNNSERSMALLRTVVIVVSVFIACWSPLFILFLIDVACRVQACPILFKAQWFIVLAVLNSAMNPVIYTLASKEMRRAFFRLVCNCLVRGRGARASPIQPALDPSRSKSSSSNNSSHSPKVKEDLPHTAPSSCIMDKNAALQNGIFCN

Compound | IC50 [1] | S1P3 (% inh) [2] | other results
COC(=O)c1ccc2c(C(=O)NCc3ccc(F)c(F)c3)c(C(C)C)n(Cc3ccccc3)c2c1 | 12 nM | 100% | –
CC(C)c1c(C(=O)NCc2ccc(F)c(F)c2)c2ccc(C(=O)O)cc2n1Cc1ccccc1 | > 10000 nM | 40% | –
CC(C)Oc1ccc2c(C(=O)NCc3cccnc3)c(C(C)C)n(Cc3ccccn3)c2c1 | – | ND (98) % | –
CC(C)c1c(C(=O)NCc2cccnc2)c2ccc(O)cc2n1Cc1ccccn1 | – | ND (54) % | –
CC(C)c1c(C(=O)NCc2ccc(F)c(F)c2)c2ccc(/C=N/OC(C)(C)C)cc2n1Cc1ccccc1 | 145 nM | 99% | –
CCO/N=C(\C)c1ccc2c(C(=O)NCc3ccc(F)c(F)c3)c(C(C)C)n(Cc3ccccc3)c2c1 | 262 nM | 98% | –
CC(C)c1c(C(=O)NCc2ccc(F)c(F)c2)c2ccc(OC3CCN(C(=O)OC(C)(C)C)C3)cc2n1Cc1ccccc1 (stereo not drawn) | 673 nM | 100% | –
CC(C)c1c(C(=O)NCc2ccc(F)c(F)c2)c2ccc(OC3CCNC3)cc2n1Cc1ccccc1 (stereo not drawn) | 2400 nM | 80% | –
CC(C)c1c(C(=O)NCc2ccc(F)c(F)c2)c2ccc(OC3CCOC3)cc2n1Cc1ccccn1 (stereo not drawn) | 19 nM | 100% | Kb [3]: 21 nM
CC(C)c1c(C(=O)NCc2ccc(F)c(F)c2)c2ccc(OC3CCCC3)cc2n1Cc1ccccn1 | 3 nM | 100% | Kb [3]: 4 nM
C#CCOc1ccc2c(C(=O)NCc3ccc(F)c(F)c3)c(C(C)C)n(Cc3ccccn3)c2c1 | 324 nM | 99% | –
CC(=NO)c1c(C(=O)NCc2ccc(F)c(F)c2)c2ccc(OC(C)C)cc2n1Cc1ccccn1 (stereo in doubt) [Compound 110, (E)-N-(3,4-Difluorobenzyl)-2-(1-(hydroxyimino)ethyl)-6-isopropoxy-1-(pyridin-2-ylmethyl)-1H-indole-3-carboxamide] | – | – | IC50: 384 nM; S1P3 (% inh): 384 nM (100) %
CON=C(C)c1c(C(=O)NCc2ccc(F)c(F)c2)c2ccc(OC(C)C)cc2n1Cc1ccccn1 (stereo in doubt) [Compound 111, (E)-N-(3,4-Difluorobenzyl)-6-isopropoxy-2-(1-(methoxyimino)ethyl)-1-(pyridin-2-ylmethyl)-1H-indole-3-carboxamide] | – | – | S1P3 (% inh): 263 nM (100) %; IC50 (read-out: S1P3 IC50): 263 nM
COc1ccc2c(C(=O)NCc3ccc(F)c(F)c3)c(C(C)C)n(Cc3ccccc3)c2c1 [Compound 7, 1-Benzyl-N-(3,4-difluorobenzyl)-2-isopropyl-6-methoxy-1H-indole-3-carboxamide] | 560 nM | 98% | –
CC(C)c1c(C(=O)NCc2ccc(F)c(F)c2)c2ccc(O)cc2n1Cc1ccccc1 [Compound 8, 1-Benzyl-N-(3,4-difluorobenzyl)-6-hydroxy-2-isopropyl-1H-indole-3-carboxamide] | 3100 nM | 71% | –
CCCOc1ccc2c(C(=O)NCc3ccc(F)c(F)c3)c(C(C)C)n(Cc3ccccc3)c2c1 [Compound 10, 1-Benzyl-N-(3,4-difluorobenzyl)-2-isopropyl-6-propoxy-1H-indole-3-carboxamide] | – | – | Kb [3]: 2 nM
CC(C)Oc1ccc2c(C(=O)NCc3ccc(F)c(F)c3)c(C(C)C)n(Cc3ccccc3)c2c1 [Compound 11, 1-Benzyl-N-(3,4-difluorobenzyl)-6-isopropoxy-2-isopropyl-1H-indole-3-carboxamide] | – | – | Kb [3]: 2 nM
CCCCOc1ccc2c(C(=O)NCc3ccc(F)c(F)c3)c(C(C)C)n(Cc3ccccc3)c2c1 [Compound 12, 1-Benzyl-6-butoxy-N-(3,4-difluorobenzyl)-2-isopropyl-1H-indole-3-carboxamide] | 3 nM | 100% | –
CC(C)COc1ccc2c(C(=O)NCc3ccc(F)c(F)c3)c(C(C)C)n(Cc3ccccc3)c2c1 [Compound 13, 1-Benzyl-N-(3,4-difluorobenzyl)-6-isobutoxy-2-isopropyl-1H-indole-3-carboxamide] | 1.2 nM | 100% | Kb [3]: 1.6 nM
CCCCCCOc1ccc2c(C(=O)NCc3ccc(F)c(F)c3)c(C(C)C)n(Cc3ccccc3)c2c1 [Compound 14, 1-Benzyl-N-(3,4-difluorobenzyl)-6-(hexoxy)-2-isopropyl-1H-indole-3-carboxamide] | – | – | S1P3 (% inh): 3.1 μM (96) %; IC50 (read-out: S1P3 IC50): 3100 nM
CC(C)c1c(C(=O)NCc2ccc(F)c(F)c2)c2ccc(OCc3ccccc3)cc2n1Cc1ccccc1 [Compound 15, 1-Benzyl-6-(benzyloxy)-N-(3,4-difluorobenzyl)-2-isopropyl-1H-indole-3-carboxamide] | – | – | S1P3 (% inh): 260 nM (100) %; IC50 (read-out: S1P3 IC50): 260 nM
CC(C)c1c(C(=O)NCc2ccc(F)c(F)c2)c2ccc(OC3CCCC3)cc2n1Cc1ccccc1 [Compound 16, 1-Benzyl-6-(cyclopentoxy)-N-(3,4-difluorobenzyl)-2-isopropyl-1H-indole-3-carboxamide] | – | – | Kb: 1.2 nM; S1P3 (% inh): 3 nM (100) 1.2 nM %; IC50 (read-out: S1P3 IC50): 3 nM
COCCOc1ccc2c(C(=O)NCc3ccc(F)c(F)c3)c(C(C)C)n(Cc3ccccc3)c2c1 [Compound 17, 1-Benzyl-N-(3,4-difluorobenzyl)-2-isopropyl-6-(2-methoxyethoxy)-1H-indole-3-carboxamide] | 6.5 nM | 99% | –
CC(C)c1c(C(=O)NCc2ccc(F)c(F)c2)c2ccc(OCCN(C)C)cc2n1Cc1ccccc1 [Compound 18, 1-Benzyl-N-(3,4-difluorobenzyl)-6-(2-(dimethylamino)ethoxy)-2-isopropyl-1H-indole-3-carboxamide] | 242 nM | 94% | –
CC(C)c1c(C(=O)NCc2ccc(F)c(F)c2)c2ccc(OC3CCOC3)cc2n1Cc1ccccc1 (stereo not drawn) [Compound 19, 1-Benzyl-N-(3,4-difluorobenzyl)-2-isopropyl-6-(tetrahydrofuran-3-yloxy)-1H-indole-3-carboxamide] | 6 nM | 100% | –
CC(C)c1c(C(=O)NCc2ccc(F)c(F)c2)c2ccc(OC3CCOC3=O)cc2n1Cc1ccccc1 (stereo not drawn) [Compound 20, 1-Benzyl-N-(3,4-difluorobenzyl)-2-isopropyl-6-(2-oxotetrahydrofuran-3-yloxy)-1H-indole-3-carboxamide] | 81 nM | 100% | –
CC(C)c1c(C(=O)NCc2ccc(F)c(F)c2)c2ccc(OC(=O)N(C)C)cc2n1Cc1ccccc1 [Compound 21, 1-benzyl-3-(3,4-difluorobenzylcarbamoyl)-2-isopropyl-1H-indol-6-yl Dimethylcarbamate] | 24 nM | 99% | –
CC(C)c1c(C(=O)NCc2ccc(F)c(F)c2)c2ccc(OC(=O)C(C)(C)C)cc2n1Cc1ccccc1 [Compound 22, 1-Benzyl-3-(3,4-difluorobenzylcarbamoyl)-2-isopropyl-1H-indol-6-yl Pivalate] | – | – | S1P3 (% inh): 4 nM (99) %; IC50 (read-out: S1P3 IC50): 4 nM
CC(=O)Oc1ccc2c(C(=O)NCc3ccc(F)c(F)c3)c(C(C)C)n(Cc3ccccc3)c2c1 [Compound 23, 1-Benzyl-3-(3,4-difluorobenzylcarbamoyl)-2-isopropyl-1H-indol-6-yl Acetate] | – | – | S1P3 (% inh): 14 nM (100) %; IC50 (read-out: S1P3 IC50): 14 nM
CCC(=O)Oc1ccc2c(C(=O)NCc3ccc(F)c(F)c3)c(C(C)C)n(Cc3ccccc3)c2c1 [Compound 24, 1-Benzyl-3-(3,4-difluorobenzylcarbamoyl)-2-isopropyl-1H-indol-6-yl Propionate] | – | – | S1P3 (% inh): 20 nM (100) %; IC50 (read-out: S1P3 IC50): 20 nM
